# Data from patent publication US20180312511A1, “SHORT-ACTING BENZODIAZEPINE DERIVATIVES, PREPARATION METHOD THEREFOR, AND USE THEREOF” (SICHUAN KELUN-BIOTECH BIOPHARMACEUTICAL CO., LTD., priority 2015, published 2018).
# Assays:
# Kunming mice = assay: Drug-induced loss of righting reflex in mice; format: in vivo; conditions: 60 mg/kg, single bolus via tail vein
# Description: (§1) In anesthetic activity tests, latency generally refers to the period between the start of administration of a drug to a subject and the moment that the subject becomes unconscious. A short latency is desirable, since it represents fast onset of the drug.
# (§2) The duration of anesthesia generally refers to the period between the moment that a subject becomes unconscious and the moment that the subject regains consciousness. The durations will be different for different animal models or animal species. An over-long duration of anesthesia may result in adverse suppressive effects on the cardiovascular and respiratory systems, such as side effects on the nervous system, including drowsiness, dizziness, etc.; at the same time, an over-short duration of anesthesia may affect the anesthetic effect, causing dose increase of anesthetic during surgery and other issues.
# Kunming mice (male, 18-25 g) were randomly divided into several groups. After administering the drugs in a single bolus via the tail vein, the latency to loss of righting reflex and the duration of loss of righting reflex were recorded.
# Rhesus monkeys = assay: Anesthetic effects in monkeys (loss of consciousness); format: in vivo; conditions: intravenous single bolus
# Description: as §1, §2
# Rhesus monkeys (male, 5-6 kg) were randomly divided into several groups. After administering the drugs intravenously in a single bolus, the latency to and the duration of loss of consciousness were recorded.
# [1] = test system: GABA Cl− current, HEK293T cells; assay: Cellular GABA activation current via whole-cell patch clamp; format: cell-based; conditions: Homo sapiens, HEK-293T, with 1 μM GABA, holding potential −60 mV; for Emax at 10 µM: concentration 10 μM; for EC50: read-out: EC50 (concentration at half of Emax); for Emax at 30 µM: concentration 30 μM
# Experimental: Test compounds were dissolved in external solution (NaCl 140 mM, KCl 4.7 mM, HEPES 10 mM. CaCl2 2 mM, glucose 11 mM, and MgCl2 1 mM, pH 7.4) at various concentrations. HEK293T cells were plated on glass cover slips, and incubated in DMEM medium at 37° C. and 5% CO2 for 24 h.
# An HEKA EPC 10 USB patch clamp amplifier was used in the whole-cell recording of GABA Cl^− current. 1 μM GABA was used to excite Cl^− current. Cells were voltage clamped at a holding potential of −60 mV, and treated with the test compounds of different concentrations together with 1 μM of GABA. The Cl^− current induction effect of the test compounds on the same cell, the maximum percentage of current potentiation (Emax), and the concentration of test compounds at half of Emax (EC50) were recorded.
# [2] = read-out: Emax (maximum percentage of current potentiation)
SMILES,Duration of loss of righting reflex (Kunming mice) [min],Latency to loss of righting reflex (Kunming mice) [min],Latency to loss of consciousness (Rhesus monkeys; 6 mg/kg) [min],EC50 [1] [nM],Duration of loss of consciousness (Rhesus monkeys; 8 mg/kg) [min],other results
"CCc1nnc2n1-c1ccc(Cl)cc1C(c1ccccn1)=N[C@H]2CCC(=O)OC [Example 30, (S)-methyl 3-(8-chloro-1-ethyl-6-(pyridin-2-yl)-4H-benzo[f][1,2,4]triazolo[4,3-a][1,4]diazepin-4-yl)propanoate]",17.74,0.20,,,,
"COC(=O)CC[C@@H]1N=C(c2ccccn2)c2cc(Br)ccc2-n2c(C)cnc21 [Remimazolam, reference compound]",,0.28,5.50,,,Latency to loss of consciousness (Rhesus monkeys; 4 mg/kg): 5.34 min
"COC(=O)CC[C@@H]1N=C(c2ccccn2)c2cc(Br)ccc2-n2cnnc21 [Example 9, (S)-methyl 3-(8-bromo-6-(pyridin-2-yl)-4H-benzo[f][1,2,4]triazolo[4,3-a][1,4]diazepin-4-yl)propanoate]",12.88,,,720,36.47,"Emax at 10 µM [1, 2]: 408%"
"COC(=O)CC[C@@H]1N=C(c2ccccn2)c2cc(Br)ccc2-n2ccnc21 [Example 2, (S)-methyl 3-(8-bromo-6-(pyridin-2-yl)-4H-benzo[f]imidazo[1,2-a][1,4]diazepin-4-yl)propanoate]",,0.13,3.92,,55.90,"Emax at 30 µM [1, 2]: 358%; Duration of loss of consciousness (Rhesus monkeys; 6 mg/kg): 18.10 min"
"COC(=O)CC[C@@H]1N=C(c2ccccc2F)c2cc(Cl)ccc2-n2c(C3CC3)nnc21 [Example 18, (S)-methyl 3-(8-chloro-1-cyclopropyl-6-(2-fluorophenyl)-4H-benzo[f][1,2,4]triazolo[4,3-a][1,4]diazepin-4-yl)propanoate]",25.61,0.19,5.09,470,,"Emax at 10 µM [1, 2]: 347%; Duration of loss of consciousness (Rhesus monkeys; 1 mg/kg): 41.15 min; Latency to loss of consciousness (Rhesus monkeys; 1 mg/kg): 3.30 min; Latency to loss of consciousness (Rhesus monkeys; 4 mg/kg): 5.10 min"
"COC(=O)CC[C@@H]1N=C(c2ccccc2F)c2cc(Cl)ccc2-n2cnnc21 [Example 17, (S)-methyl 3-(8-chloro-6-(2-fluorophenyl)-4H-benzo[f][1,2,4]triazolo[4,3-a][1,4]diazepin-4-yl)propanoate]",18.51,,,,52.50,
"[2H]Cc1cnc2n1-c1ccc(Br)cc1C(c1ccccn1)=N[C@H]2CCC(=O)OC [Example 6, (S)-methyl 3-(8-bromo-1-deuteromethyl-6-(pyridin-2-yl)-4H-benzo[f]imidazo[1,2-a][1,4]diazepin-4-yl)propanoate]",23.95,0.17,,,,
"COCc1cnc2n1-c1ccc(Br)cc1C(c1ccccn1)=N[C@H]2CCC(=O)OC [Example 10, (S)-methyl 3-(8-bromo-1-(methoxymethyl)-6-(pyridin-2-yl)-4H-benzo[f]imidazo[1,2-a][1,4]diazepin-4-yl)propanoate]",17.27,,4.00,470,26.00,"Emax at 3 µM ([1]; concentration 3 μM, read-out: Emax (maximum percentage of current potentiation)): 197%; Duration of loss of consciousness (Rhesus monkeys; 6 mg/kg): 26.00 min"
"COC(=O)CC[C@@H]1N=C(c2ccccn2)c2cc(Cl)ccc2-n2c(C(C)C)nnc21 [Example 31, (S)-methyl 3-(8-chloro-1-isopropyl-6-(pyridin-2-yl)-4H-benzo[f][1,2,4]triazolo[4,3-a][1,4]diazepin-4-yl)propanoate]",17.82,0.16,,,,
"[2H]Cc1nnc2n1-c1ccc(Br)cc1C(c1ccccn1)=N[C@H]2CCC(=O)OC [Example 11, (S)-methyl 3-(8-bromo-1-deuteromethyl-6-(pyridin-2-yl)-4H-benzo[f][1,2,4]triazolo[4,3-a][1,4]diazepin-4-yl)propanoate]",12.82,,,400,,"Emax at 30 µM [1, 2]: 319%"
"COC(=O)CC[C@@H]1N=C(c2ccccc2)c2cc(Cl)ccc2-n2cnnc21 [Example 3, (S)-methyl 3-(8-chloro-6-phenyl-4H-benzo[f][1,2,4]triazolo[4,3-a][1,4]diazepin-4-yl)propanoate]",11.76,,,950,,"Emax at 30 µM [1, 2]: 325%"
"COC(=O)CC[C@@H]1N=C(c2ccccn2)c2cc(Cl)ccc2-n2c(C3CC3)cnc21 [Example 21, (S)-methyl 3-(8-chloro-1-cyclopropyl-6-(pyridin-2-yl)-4H-benzo[f]imidazo[1,2-a][1,4]diazepin-4-yl)propanoate]",23.23,,,,,
"COC(=O)CC[C@@H]1N=C(c2ccccn2)c2cc(Br)ccc2-n2c(C3CC3)cnc21 [Example 5, (S)-methyl 3-(8-bromo-1-cyclopropyl-6-(pyridin-2-yl)-4H-benzo[f]imidazo[1,2-a][1,4]diazepin-4-yl)propanoate]",23.33,,,360,,"Emax at 10 µM [1, 2]: 160%"
"CCc1cnc2n1-c1ccc(Br)cc1C(c1ccccn1)=N[C@H]2CCC(=O)OC [Example 15, (S)-methyl 3-(8-bromo-1-ethyl-6-(pyridin-2-yl)-4H-benzo[f]imidazo[1,2-a][1,4]diazepin-4-yl)propanoate]",,0.24,2.75,,,Duration of loss of consciousness (Rhesus monkeys; 4 mg/kg): 37.50 min; Latency to loss of consciousness (Rhesus monkeys; 4 mg/kg): 3.75 min; Duration of loss of consciousness (Rhesus monkeys; 6 mg/kg): 49.00 min
"COC(=O)CC[C@@H]1N=C(c2ccccn2)c2cc(Br)ccc2-n2c(C)nnc21 [Example 4, (S)-methyl 3-(8-bromo-1-methyl-6-(pyridin-2-yl)-4H-benzo[f][1,2,4]triazolo[4,3-a][1,4]diazepin-4-yl)propanoate]",19.14,,,980,45.00,"Emax at 30 µM [1, 2]: 472%"
"COC(=O)CC[C@@H]1N=C(c2ccccn2)c2cc(Cl)ccc2-n2c(C3CCC3)cnc21 [Example 29, (S)-methyl 3-(8-chloro-1-cyclobutyl-6-(pyridin-2-yl)-4H-benzo[f]imidazo[1,2-a][1,4]diazepin-4-yl)propanoate]",19.09,0.21,,,,
